Columns and labels:
PBMC = details: human
[1] = system: clinical HIV-1 isolate, JEW; test: Anti-HIV activity (p24 ELISA) in acutely infected PHA-stimulated PBMC, clinical isolate JEW; assay type: cell-based
Excerpt: The materials and experimental procedure used to obtain the results reported in Tables 1 and 2 are described below.
Virus - A clinical HIV-1 isolate, JEW, was titrated with a infectivity assay [Johnson, V. A. and R. E. Byington. 1990. Infectivity assay, p. 71-76. in A. Aldovini and B. D. Walker (ed.), Techniques in HIV Research. Stockton Press, New York], and used in our experiments.
Chemicals - d4T was supplied by Bristol-Myers Squibb Company. 5-Fluorouracil (5-FU) was purchased from Sigma.
• 1. […] 50 µl of 4 X 10^6/ml infected PBMC were added to each well in these plates to get a final 1 X 10^6 cells/ml, and incubated at 37°C. • 4. […] This was repeated with d4T using 5-FU concentrations of 0.1 µM and 0.5 µM, respectively.

In the case of `O=c1[nH]cc(F)c(=O)[nH]1` [5-FU, 5-fluorouracil], the 50% cytotoxicity concentration (PBMC) is reported as “approximately 9 µM” and the antiviral activity ([1]; Fluorouracil alone, up to 0.5 µM, PHA-PBMC acutely infected by isolate JEW) is reported as “no antiviral activity”.

With `Cc1cn([C@H]2C=C[C@@H](CO)O2)c(=O)[nH]c1=O` [d4T, 2',3'-didehydro-3'-deoxythymidine] the “Fold Enhancement” value ([1]; enhancement of d4T anti-HIV activity by 0.2 µM 5-FU, isolate JEW) was 1 X.

With `OC[C@@H]1CC[C@H](n2cnc3c(O)ncnc32)O1` [ddI, 2',3'-dideoxyinosine] the EC50 ([1]; Human immunodeficiency virus 1, PBMC, 168 h, 5-FU concentration 0.5 µM, PHA-stimulated PBMC, isolate JEW, p24 at day 7, mean of three experiments, read-out: EC50 (nM) of ddI) was 138 ± 26 nM, the “Fold Enhancement” value ([1]; effect of 0.2 µM 5-FU on ddI anti-HIV activity, isolate JEW) was 0.6 X and the “Fold Enhancement” value ([1]; effect of 0.5 µM 5-FU on ddI anti-HIV activity, isolate JEW) was 0.7 X.
